Measurements reported in patent US5045566A, “Novel imidate insecticides” (ICI Americas Inc., priority 1989, dated 1991).

Key:
Type in all cases: in vivo
[1] = test system: Housefly [Musca domestica]; assay: Housefly contact mortality in dishes (HF), 48 hours; settings: μg of test compound per 25 female flies
Outline: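 Dose range started at 100 μg per 25 female flies and went downward. Insects (1-2 days old) contacted a dried acetone/peanut-oil deposit in dishes; LC50 values come from dosage-mortality curves at 48 h.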

[2] = test system: Black Bean Aphid [Aphis fabae (Scop.)]; assay: Black bean aphid spray test on nasturtium (BBA), 48 hours; settings: percent of test compound in sprayed solution
Outline: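 LC50, given as percent test compound in the sprayed liquid, was calculated from dosage-mortality curves using concentrations from 0.05% downward. Sprays in 50:50 acetone-water went to runoff on ~5 cm nasturtiums carrying 25-50 aphids of mixed ages, one day after infestation. Deaths were counted 48 h later under greenhouse conditions.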

[3] = test system: Tobacco Budworm [Heliothis virescens (Fabricius)] larvae; assay: Tobacco budworm larvae, contact (TBW-C), 5 days; settings: percent in solution, second-instar larvae
Outline: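 Cotton cotyledons dipped 2–3 s in compound in 50-50 acetone-water, dried, then infested with 5 second-instar larvae and held 5 days at high humidity. Mortality scored; LC50 from dosage-mortality curves, expressed as percent compound in solution, concentrations from 0.1% downward.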

[4] = test system: Tobacco Budworm [Heliothis virescens (Fabricius)] eggs; assay: Tobacco budworm eggs (TBW-E); settings: percent in solution; 2-day old eggs
Outline: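 LC50 is given as percent compound in the dipping solution, fitted from dosage-mortality curves. Two-day-old eggs on paper towel were dipped in acetone solutions (top concentration 0.1%), kept at 78° F on rearing medium, and scored after control hatch and larval feeding.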

[5] = test system: Beet Armyworm (Spodoptera exigua); assay: Beet armyworm leaf dip (BAW), 5 days; settings: percent in solution; second-instar larvae; five days
Description: The compounds in Tables 1 and 2 above were tested for insecticidal activity using the following testing procedures. LC50 values, based on the results of these tests and calculated according to dosage-mortality curves, are expressed in Table 3.
Beet Armyworm (Spodoptera exigua):
Test compounds were diluted in a 50-50 acetone-water solution. Young leaves of sugar beets (Beta vulgaris) were immersed in the test solutions for 2-3 seconds and placed on a wire screen to dry. The dried leaves were placed in petri dishes containing a moistened filter paper and infested with five second-instar beet armyworm larvae. The dishes were placed in a high humidity chamber. Mortality of the larvae was recorded five days later. Test concentrations ranged from 0.1% downward. The LC-50 values are expressed below in Table 3 under the heading "BAW" in terms of percent of the test compound in solution.

[6] = test system: Cabbage Looper [Trichoplusia ni (Hubner)]; assay: Cabbage looper leaf dip (CL), 3-5 days; settings: percent in solution, second-instar larvae
Outline: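 LC50, as percent test compound in solution, derived from dosage-mortality curves; concentrations started at 0.1% and went lower. Five second-instar larvae per dish fed on acetone-water-dipped, dried squash cotyledons in a humid chamber. Deaths recorded 3-5 days post-infestation.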

[7] = test system: Aster Leafhopper [Macrosteles fascifrens (Stal)]; assay: Aster leafhopper on dipped oat seedlings (LH), 48 hours; settings: percent in solution, adults/nymphs
Outline: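 Three ~10 cm oat seedlings per cup were dipped 2-3 seconds in 50-50 acetone-water compound solutions, dried, and caged with ten adult/nymph leafhoppers. Mortality was counted after 48 hours at concentrations from 0.05% downward. LC50, as percent compound in solution, came from dosage-mortality curves.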

[8] = test system: Maize weevil [Sitophilus zeamais (Motschulsky)]; assay: Maize weevil on dipped corn seeds (MW), 48 hours; settings: percent in solution, adult weevils
Outline: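 LC50, given as percent of compound in dipping solution, comes from dosage-mortality curves over concentrations descending from 0.01%. Four corn seeds soaked 2-3 s in 50:50 acetone:water solution were dried and held with 10 adult weevils, about 25° C, mortality read after 48 h.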

Compound: Clc1cccc(N=C(OCc2cccc(Oc3ccccc3)c2)C(Cl)Cl)c1 [Compound 1]
- LC50 HF [1]: 4.8 µg
- LC50 BBA [2]: 0.0003%
- LC50 TBW C (contact) [3]: 0.06%
- LC50 TBW E (eggs) [4]: 0.05%
- LC50 BAW [5]: 0.009%
- LC50 CL [6]: 0.005%
- LC50 LH [7]: > 0.05%
- LC50 MW [8]: > 0.01%

Compound: CC(Cl)(Cl)C(=Nc1ccc(Cl)cc1)OCc1cccc(Oc2ccccc2)c1 [Compound 3]
- LC50 HF [1]: 50 µg
- LC50 BBA [2]: 0.003%
- LC50 TBW C (contact) [3]: 0.009%
- LC50 TBW E (eggs) [4]: > 0.1%
- LC50 BAW [5]: 0.015%
- LC50 CL [6]: 0.012%
- LC50 LH [7]: > 0.05%
- LC50 MW [8]: > 0.01%

Compound: CC(C)C(=Nc1ccc(Cl)c(Cl)c1)OCc1cccc(Oc2ccccc2)c1 [Compound 9]
- LC50 HF [1]: 14 µg
- LC50 BBA [2]: 0.001%
- LC50 TBW C (contact) [3]: 0.0008%
- LC50 TBW E (eggs) [4]: 0.02%
- LC50 BAW [5]: 0.0005%
- LC50 CL [6]: 0.001%
- LC50 LH [7]: 0.0003%
- LC50 MW [8]: > 0.01%

Compound: Clc1ccc(N=C(OCc2cccc(Oc3ccccc3)c2)C(Cl)Cl)cc1 [Compound 29]
- LC50 HF [1]: 5 µg
- LC50 BBA [2]: 0.001%
- LC50 TBW C (contact) [3]: 0.001%
- LC50 TBW E (eggs) [4]: 0.01%
- LC50 BAW [5]: 0.003%
- LC50 CL [6]: 0.002%
- LC50 LH [7]: 0.003%
- LC50 MW [8]: > 0.01%

Compound: ClCC(=Nc1ccc(Cl)cc1)OCc1cccc(Oc2ccccc2)c1 [Compound 31]
- LC50 HF [1]: > 100 µg
- LC50 BBA [2]: 0.05%
- LC50 TBW C (contact) [3]: 0.01%
- LC50 TBW E (eggs) [4]: > 0.1%
- LC50 BAW [5]: 0.08%
- LC50 CL [6]: 0.05%
- LC50 LH [7]: > 0.05%
- LC50 MW [8]: > 0.01%

Compound: CC(Cl)C(=Nc1ccc(Cl)cc1)OCc1cccc(Oc2ccccc2)c1 (centres unmarked) [Compound 33]
- LC50 HF [1]: 17 µg
- LC50 BBA [2]: 0.003%
- LC50 TBW C (contact) [3]: 0.0025%
- LC50 TBW E (eggs) [4]: > 0.1%
- LC50 BAW [5]: 0.02%
- LC50 CL [6]: 0.01%
- LC50 LH [7]: > 0.05%
- LC50 MW [8]: > 0.01%

Compound: CC(=Nc1ccccc1)OCc1cccc(Oc2ccccc2)c1 [Compound 42]
- LC50 HF [1]: 45 µg
- LC50 BBA [2]: > 0.05%
- LC50 TBW C (contact) [3]: > 0.1%
- LC50 TBW E (eggs) [4]: > 0.1%
- LC50 BAW [5]: > 0.1%
- LC50 CL [6]: > 0.1%
- LC50 LH [7]: > 0.05%
- LC50 MW [8]: > 0.01%

Compound: FC(F)(F)c1ccc(N=C(OCc2cccc(Oc3ccccc3)c2)C(Cl)Cl)cc1 [Compound 61]
- LC50 HF [1]: 29 µg
- LC50 BBA [2]: 0.001%
- LC50 TBW C (contact) [3]: 0.03%
- LC50 TBW E (eggs) [4]: 0.03%
- LC50 BAW [5]: 0.002%
- LC50 CL [6]: 0.001%
- LC50 LH [7]: > 0.05%
- LC50 MW [8]: > 0.01%

Compound: FC(F)(F)Oc1ccc(N=C(OCc2cccc(Oc3ccccc3)c2)C(Cl)Cl)cc1 [Compound 64]
- LC50 HF [1]: 11 µg
- LC50 BBA [2]: 0.0006%
- LC50 TBW C (contact) [3]: 0.1%
- LC50 TBW E (eggs) [4]: 0.03%
- LC50 BAW [5]: 0.0025%
- LC50 CL [6]: 0.0025%
- LC50 LH [7]: > 0.05%
- LC50 MW [8]: > 0.01%

Compound: CC(C)C(=Nc1ccc(Cl)c(C(F)(F)F)c1)OCc1cccc(Oc2ccccc2)c1 [Compound 71]
- LC50 HF [1]: 50 µg
- LC50 BBA [2]: 0.001%
- LC50 TBW C (contact) [3]: 0.0008%
- LC50 TBW E (eggs) [4]: 0.065%
- LC50 BAW [5]: 0.0004%
- LC50 CL [6]: 0.0006%
- LC50 LH [7]: 0.002%

Compound: CC(C)C(=Nc1cc(F)cc(C(F)(F)F)c1)OCc1cccc(Oc2ccccc2)c1 [Compound 77]
- LC50 HF [1]: 10 µg
- LC50 BBA [2]: 0.001%
- LC50 TBW C (contact) [3]: 0.0004%
- LC50 TBW E (eggs) [4]: 0.03%
- LC50 BAW [5]: 0.004%
- LC50 CL [6]: 0.0005%
- LC50 LH [7]: 0.0002%
- LC50 MW [8]: > 0.01%

Compound: CC(C)C(=Nc1cccc(C(F)(F)F)c1)OCc1ccc(F)c(Oc2ccccc2)c1 [Compound 80]
- LC50 HF [1]: 4.5 µg
- LC50 BBA [2]: 0.00025%
- LC50 TBW C (contact) [3]: 0.00075%
- LC50 TBW E (eggs) [4]: 0.005%
- LC50 BAW [5]: 0.0018%
- LC50 CL [6]: 0.0003%
- LC50 LH [7]: 0.0001%

Compound: CC(C)C(=Nc1ccc(C(C)C)cc1)OCc1cccc(Oc2ccccc2)c1 [Compound 144]
- LC50 HF [1]: 100 µg
- LC50 BBA [2]: 0.003%
- LC50 TBW C (contact) [3]: 0.006%
- LC50 TBW E (eggs) [4]: 0.05%
- LC50 BAW [5]: > 0.01%
- LC50 CL [6]: 0.002%
- LC50 LH [7]: 0.0006%
- LC50 MW [8]: > 0.01%

Compound: CC(C)C(=Nc1ccc2c(c1)OCO2)OCc1cccc(Oc2ccc(F)cc2)c1 [Compound 176]
- LC50 HF [1]: 1.8 µg
- LC50 BBA [2]: 0.0006%
- LC50 TBW C (contact) [3]: 0.002%
- LC50 TBW E (eggs) [4]: 0.05%
- LC50 BAW [5]: 0.0035%
- LC50 CL [6]: 0.0005%
- LC50 LH [7]: > 0.05%
- LC50 MW [8]: 0.009%

Compound: CC(C)C(=Nc1cccc(C(F)(F)F)c1)OCc1ccc(F)c(Oc2ccc(F)cc2)c1 [Compound 268]
- LC50 HF [1]: 4 µg
- LC50 BBA [2]: > 0.05%
- LC50 TBW C (contact) [3]: 0.0005%
- LC50 TBW E (eggs) [4]: 0.023%
- LC50 BAW [5]: 0.001%
- LC50 CL [6]: 0.000025%
- LC50 LH [7]: 0.0005%
- LC50 MW [8]: > 0.01%

Compound: CC(C)C(=Nc1ccc2c(c1)OC(F)(F)O2)OCc1ccc(F)c(Oc2ccc(F)cc2)c1 [Compound 284]
- LC50 HF [1]: 39 µg
- LC50 BBA [2]: 0.0003%
- LC50 TBW C (contact) [3]: 0.0002%
- LC50 BAW [5]: 0.0025%
- LC50 CL [6]: 0.00005%
- LC50 LH [7]: 0.0003%
- LC50 MW [8]: 0.0075%
